Test results as given in patent US20220062262A1, “GSNO REDUCTASE INHIBITOR AS AN ADJUNCT THERAPY WITH REMOTE ISCHEMIC CONDITIONING AND THROMBOLYTIC REPERFUSION THERAPIES IN STROKE” (KING ABDULAZIZ UNIVERSITY, priority 2020, published 2022).

How the values were obtained:
[1] = tested on: iNOS, iCAM-1, IL-1β, IL-6 expression; experiment: Brain inflammatory gene expression (RT-PCR) after tMCAo in STZ-induced diabetic mice; type: in vivo
Procedure: Mice were immediately sacrificed after PbtO2 measurement and brain tissue samples were analyzed for inflammatory gene expression (N=6/gp). RT-PCR primers shown in Table 1 were used to measure changes in expression of iNOS (FIG. 11A), iCAM-1 (FIG. 11B), IL-1(3 (FIG. 11C) and IL-6 (FIG. 11D). The result for each inflammatory gene was normalized to expression of β-actin and expressed as a fold change.

ischemia/reperfusion = details: 5 mg/kg at 2 hr post ischemia/reperfusion, daily for 3 days or 2 weeks; cited from earlier work
GSNOR = target: T1, GSNOR (Mus musculus, UniProt P28474); experiment: Plasma GSNOR activity (GSNO-dependent NADH consumption) after PT-stroke in aged female mice; type: in vivo; details: 2.5 mg/kg after PT-stroke, P<0.01
T1 construct: Plasma was isolated from freshly drawn blood after cardiac puncture under deep isoflurane anesthesia; from tissue; host or cells: plasma of aged female C57/B6-background mice after PT-stroke
Procedure: Plasma was isolated from freshly drawn blood after cardiac puncture under deep isoflurane anesthesia, and mice were sacrificed to collect brain tissue. Plasma and brain tissue samples were snap-frozen until assay.
A method of GSNO dependent NADH consumption was used to determine GSNOR activity as reported. Briefly, brain tissue was homogenized in a buffer containing 50mM Tris-HCl (pH 8.0), 150 mM NaCl, 1-mM EDTA, 0.1% Triton X-100 and 1:100 protease inhibitor cocktail and centrifuged (10, 000 g×10 minutes at 4° C.) to obtain supernatant. […] The consumption of NADH was monitored with fluorescence spectrophotometry at an excitation wavelength of 340 nm and emission at 460 nm. GSNOR activity was calculated by subtracting the rate of NADH consumption incubated in the presence of GSNO minus the rate of NADH consumption without GSNO in samples.
A sex difference was found in the basal level of plasma GSNOR activity, showing higher GSNOR activity in female mice compared to age-matched males (P<0.05; N=6/gp) as shown in FIG. 3A. […] Statistical significance was determined at P<0.05 and were indicated with asterisks or different letters indicating statistically different Means.

T1 sequence (P28474 whole entry): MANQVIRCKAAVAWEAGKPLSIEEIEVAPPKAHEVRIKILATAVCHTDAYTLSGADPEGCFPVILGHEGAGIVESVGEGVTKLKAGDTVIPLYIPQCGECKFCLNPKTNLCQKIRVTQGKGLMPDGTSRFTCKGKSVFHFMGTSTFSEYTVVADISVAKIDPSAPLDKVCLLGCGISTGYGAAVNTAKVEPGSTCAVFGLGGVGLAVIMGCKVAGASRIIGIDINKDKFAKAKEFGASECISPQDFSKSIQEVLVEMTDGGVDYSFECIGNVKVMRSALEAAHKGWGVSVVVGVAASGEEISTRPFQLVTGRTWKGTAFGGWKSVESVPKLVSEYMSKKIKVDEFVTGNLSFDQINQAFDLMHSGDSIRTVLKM

Cc1cc(C(N)=O)ccc1-n1c(CCC(=O)O)ccc1-c1ccc(-n2ccnc2)cc1 [GRI therapy, N6022]
inflammatory gene expression in brain (fold change, normalized to β-actin) ([1]; GRI alone vs vehicle-treated stroke group, after PbtO2 measurement at 6 h post-reperfusion): showed a trend only to downregulate most inflammatory genes and were not significantly different from the vehicle-treated stroke group | inflammatory gene expression in brain (fold change, normalized to β-actin) ([1]; GRI prior to RIC therapy vs RIC therapy alone): significantly downregulated and prevented RIC-induced inflammatory responses | Neurological score, survival rate and motor/cognitive skills (ischemia/reperfusion): improved | post-stroke plasma GSNOR activity (GSNOR): significantly inhibited the post-stroke plasma GSNOR activity
